The values below come from PubChem BioAssay (NCI).

Assay in all cases: NCI-60 cell line screen, 48 h
The test system of test [1] is COLO 205 colon.
Test [2] has as its system IGROV1 ovarian.
The test system of test [3] is NCI-H23 lung.
Test [4] deals with SF-295 CNS.
Test [5] relates to SK-MEL-2 melanoma.
The test system of test [6] is CCRF-CEM leukemia.
Test [7] relates to OVCAR-4 ovarian.
Test [8] deals with UACC-62 melanoma.
Test [9] relates to MCF7 breast.
Test [10] deals with K-562 leukemia.

Structures are written as SMILES.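 Growth conditions: 96-well plates. Treatment: test compound, 48 hours, 5 concentrations. Analysis: linear interpolation between bracketing concentrations; unreached endpoints set to highest concentration. GI50 = concentration required for 50% inhibition of growth. TGI: total growth inhibition.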

In the case of `C/C=C/[P+](c1ccccc1)(c1ccccc1)c1ccccc1`, the TGI in test [1] was 0.285 µM; in test [2], 18.1 µM; in [3], 14.3 µM; in test [4], 12 µM; in test [5] it was 29.1 µM; in test [6], above 42.4 µM. Also, the TGI in test [7] was 25.4 µM; in test [8] it was 19.2 µM; in test [9], above 45.5 µM; in test [10], 28.2 µM.

`Cc1sc(Cc2ccccc2)nc1-c1ccc(N)cc1`: the TGI in test [1] is 56.2 µM; in [2], 89.8 µM; in test [3] it was above 100 µM; in [4], above 100 µM; in test [5], 37.7 µM; in test [6], 72.8 µM. In addition, the TGI in [7] is 51.1 µM; in [8], 37.8 µM; in test [9] it was 44.1 µM; in test [10], above 100 µM.

With `CCOC(=O)/C(Cl)=C(\C)Nc1nc2c(ccc3ccccc32)s1`, the TGI is above 100 µM in [1]; above 100 µM in test [2]; above 100 µM in [3]; above 100 µM in [4]; 60.1 µM in test [5]; above 100 µM in test [6]. The TGI in test [7], in test [8], in test [9] and in test [10] was above 100 µM throughout.

For `O=c1oc2ccccc2c(Nc2ccc3c(c2)S(=O)(=O)c2ccccc2O3)c1[N+](=O)[O-]`, the TGI in [1] is 47.6 µM; in [2], 97.1 µM; in [3], 62.6 µM; in test [4] it was 77.7 µM; in [5], 46.4 µM; in [6], 83.5 µM. The TGI in test [7] is 73.5 µM; in [8] it was 40 µM; in test [9], 56.6 µM; in test [10] it was 71.3 µM.

For `Cc1cc(NCc2cc(Nc3ccnc4cc(Cl)ccc34)ccc2F)nc(N2CCCC2)n1`, the GI50 in [2] is 1.69 µM; in test [3], 1.83 µM; in test [6], 0.353 µM; in test [7] it was 1.27 µM. Besides, the TGI was 4.2 µM in test [2], 4.68 µM in test [3], above 100 µM in test [6] and 4.54 µM in test [7].

Take `NC(N)=N/N=C/c1c(-c2ccccc2)nc2n1ccc1nc(-c3ccccc3)c(/C=N/N=C(N)N)n12`: the TGI in test [1] is above 100 µM; in [2] it was 92.7 µM; in test [3] it was above 100 µM; in [4], above 100 µM; in test [5] it was above 100 µM; in test [6], above 100 µM. Besides, the TGI in [7], in test [8], in test [9] and in test [10] was above 100 µM in each case.

Take `C[C@@H]1CC[C@H]2C(COCCOCC3=C(C(F)(F)F)O[C@@H]4O[C@@]5(C)CC[C@H]6[C@H](C)CC[C@@H]3[C@@]46OO5)=C(C(F)(F)F)O[C@@H]3O[C@@]4(C)CC[C@@H]1[C@]32OO4`: the GI50 in [1] was 0.0188 µM; in test [2], above 21.1 µM; in test [3] it was 0.535 µM; in test [5] it was above 100 µM; in [6], below 0.0209 µM; in [7], above 100 µM. Also, the values for the GI50 in test [8], in [9] and in test [10] were 0.141 µM, 0.0322 µM and below 0.0241 µM, respectively. The TGI in [1] was 1.64 µM; in test [2], above 100 µM; in [3] it was above 100 µM; in test [5] it was above 100 µM; in [6], above 100 µM; in test [7], above 100 µM. Further, the TGI in [8], in [9] and in [10] was above 100 µM throughout.

Regarding `CC1=NN(c2ccccc2)C(=O)/C1=C/c1ccc(O)cc1`, the TGI in test [1], in [2], in [3], in [4], in test [5] and in [6] was above 100 µM throughout. The TGI in [7], in [8], in test [9] and in test [10] was above 100 µM throughout.

With `CC1=C2C(=O)c3ccccc3C(=O)[C@H]2[C@H]2CCO[C@H]2O1`, the TGI in test [1] was above 100 µM; in test [2] it was 31.1 µM; in test [3], 45.6 µM; in [4], 48.9 µM; in test [5] it was 36.6 µM; in [6], 69.8 µM. The TGI was determined as 37.4 µM in test [7], 39.7 µM in test [8], 23.6 µM in test [9] and 74.5 µM in [10].

Consider `COc1ccc(-c2c3c(nc4nc(SCCc5ccccc5)nc(N)c24)CCCC3)cc1OC`, for which the TGI in test [1], in test [2], in test [3], in test [4], in [6] and in test [7] was above 100 µM in each case. Also, the TGI in [8], in test [9] and in [10] was above 100 µM in each case.

With `O=S(=O)(Sc1ccc(Cl)cc1)c1ccc(Cl)cc1`, the TGI in test [1] came to 31.8 µM; in test [2], 31.1 µM; in test [3] it was 30.5 µM; in [4] it was 27.2 µM; in test [5], 14.5 µM; in test [6], 18.5 µM. For the same molecule, the figures for the TGI in test [7], in [8] and in test [10] were 41.7 µM, 31.4 µM and 93.7 µM, respectively.

Regarding `CN1CCCCC1CCN1CCCCC1` (configuration not stated), the TGI in test [1], in test [2], in test [3], in test [4], in [5] and in [7] was above 100 µM in each case. In addition, the TGI in [8], in test [9] and in [10] was above 100 µM each time.

Regarding `CN(C)CCCNc1ccc2ncn3c4ccccc4c(=O)c1c23`, the TGI in [1] was 15 µM; in [2], 33 µM; in test [3] it was 29 µM; in [4], 39 µM; in test [5], 26.8 µM; in [6], 23.4 µM. The TGI amounted to 97.1 µM in test [7], 34.7 µM in test [8] and 24.1 µM in test [10].
